Laboratory results taken from patent publication US20240287022A1 (Merck Sharp & Dohme LLC, priority 2021, published 2024).
pEC50: −log10 of the molar value.

Target: recombinant IL4I1 (Homo sapiens (Human), UniProt Q96RQ9)
Assay: IL4I1 Enzymatic Assay (Amplex Red/HRP coupled H2O2 detection)
Assay type: biochemical
Settings: 1 nM IL4I1, 1 mM each Phe/Tyr/Trp, four-hour pre-incubation, 120 minutes reaction, top compound concentration of 10000 nM
Protocol: Interleukin 4 inducible protein 1 (IL4I1) is an L-amino oxidase that catalyzes the oxidation of aromatic residues (Phe, Trp and Tyr): L-amino acid+H2O+O2→2-oxo acid+NH3+H2O2. Equal molar of H2O2 and the corresponding alpha-ketoacid are produced when IL4I1 and substrate are added. In this assay, the hydrogen peroxide generated by IL4I1 are then detected through a coupled reaction with Amplex Red (10-acetyl-3,7-dihydroxyphenoxazine) and […] (HRP) to produce Resorufin product that could be detected in the form of fluorescence signals. The assessment of the inhibitory effect of small molecules (EC50) on IL4I1 is measured by the effectiveness of the compounds to inhibit the production of H2O2.
Using this assay, the potency (EC50) of each compound was determined from a ten-point (1:3 serial dilution; top compound concentration of 10000 nM) titration curve using the following outlined procedure. To each well of a black flat-bottom Greiner (Cat #781076) 384 well-plate, 25 nL of compound (0.1% DMSO in final assay volume of 25 μL) was dispensed, followed by the addition of 12.5 μL of 1× assay buffer (50 mM Hepes 7.0 and 0.005% Tween20 (Sigma, Cat #P8341; low peroxide grade)) containing 2 nM of recombinant IL4I1 (R&D Systems, Cat #5684-AO-020). Plates were placed in an ambient temperature humidified chamber for a four-hour pre-incubation with compound. Subsequently, each reaction was initiated by the addition of 12.5 μL 1× assay buffer containing 2 mM of each aromatic amino acids (Phe/Tyr/Trp), 0.1 mM Amplex Red and 2 U/mL of HRP. The final reaction in each well of 25 μL consists of 1 nM of IL4I1, 1 mM of each residues (Phe, Tyr and Trp), 0.05 mM Amplex Red and 1 U/mL of HRP. It should be noted that the concentrations of Amplex Red and HRP used here are in excess such that the conversion of H2O2 to Resorufin product occurs instantaneously and non-rate limiting. Reactions were allowed to proceed for 120 minutes followed by fluorescence readout on a Spectramax with the following set parameters: 544 nm excitation/590 nm emission, 570 nm cutoff (EnVision is an alternative reader). Dose-response curves were generated by plotting percent effect (% product conversion; Y-axis) vs. Log10 compound concentrations (X-axis). EC50 values were calculated using a non-linear regression, four-parameters sigmoidal dose-response model.

Sequence of recombinant IL4I1 (Q96RQ9 22-567): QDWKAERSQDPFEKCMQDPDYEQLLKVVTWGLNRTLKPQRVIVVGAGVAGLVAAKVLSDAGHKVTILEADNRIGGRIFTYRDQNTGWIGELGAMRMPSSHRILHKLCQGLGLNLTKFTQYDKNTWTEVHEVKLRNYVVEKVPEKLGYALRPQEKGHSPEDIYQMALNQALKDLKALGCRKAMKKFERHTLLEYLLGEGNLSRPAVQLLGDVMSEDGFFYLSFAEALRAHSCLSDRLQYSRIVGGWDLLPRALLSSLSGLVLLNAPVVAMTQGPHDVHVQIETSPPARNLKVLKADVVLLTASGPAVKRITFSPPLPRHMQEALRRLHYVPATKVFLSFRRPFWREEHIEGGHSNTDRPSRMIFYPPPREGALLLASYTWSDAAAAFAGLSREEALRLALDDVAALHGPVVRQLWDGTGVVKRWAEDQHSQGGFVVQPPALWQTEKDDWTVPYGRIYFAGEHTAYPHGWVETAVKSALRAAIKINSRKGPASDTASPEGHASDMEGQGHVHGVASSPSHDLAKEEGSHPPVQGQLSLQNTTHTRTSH

Structure (SMILES)	pEC50
CC(c1nnc(Cc2cc3ccccc3[nH]c2=O)o1)C1CC1 (racemic) [Example 19, rac-3-((5-(1-cyclopropylethyl)-1,3,4-oxadiazol-2-yl)methyl)quinolin-2(1H)-one]	6.90
O=C1OC(CO)CN1c1ccc(Cc2cc3ccccc3[nH]c2=O)cn1 (racemic) [Example 49, rac-5-(hydroxymethyl)-3-(5-((2-oxo-1,2-dihydroquinolin-3-yl)methyl)pyridin-2-yl)oxazolidin-2-one]	7.81
CC1(CO)CN(c2ccc(Cc3cc4ccccc4[nH]c3=O)cn2)C(=O)O1 (racemic) [Example 50, rac-5-(hydroxymethyl)-5-methyl-3-(5-((2-oxo-1,2-dihydroquinolin-3-yl)methyl)pyridin-2-yl)oxazolidin-2-one]	7.72
CC1(O)CN(c2ccc(Cc3cc4ccccc4[nH]c3=O)cn2)C(=O)O1 (racemic) [Example 51, rac-5-hydroxy-5-methyl-3-(5-((2-oxo-1,2-dihydroquinolin-3-yl)methyl)pyridin-2-yl)oxazolidin-2-one]	7.54
O=c1[nH]c2ccccc2cc1Cc1ccc(C(O)C(F)(F)F)cc1 (racemic) [Example 126, rac-3-(4-(2,2,2-trifluoro-1-hydroxyethyl)benzyl)quinolin-2(1H)-one]	8.57
CS(=N)(=O)Cc1ccc(Cc2cc3ccccc3[nH]c2=O)cc1 (single isomer, unassigned) [Example 186, 3-(4-(((R or S)-methylsulfonimidoyl)methyl)benzyl)quinolin-2(1H)-one]	7.55
CS(=N)(=O)Cc1ccc(Cc2cc3ccccc3[nH]c2=O)cc1 (single isomer, unassigned) [Example 187, 3-(4-(((S or R)-methylsulfonimidoyl)methyl)benzyl)quinolin-2(1H)-one]	7.54
CC1CN(c2ccc(Cc3cc4cnccc4[nH]c3=O)cc2)C(=O)O1 (single isomer, unassigned) [Example 188, (R or S)-5-methyl-3-(4-((2-oxo-1,2-dihydro-1,6-naphthyridin-3-yl)methyl)phenyl)oxazolidin-2-one]	7.91
CC1CN(c2ccc(Cc3cc4cnccc4[nH]c3=O)cc2)C(=O)O1 (single isomer, unassigned) [Example 189, (S or R)-5-methyl-3-(4-((2-oxo-1,2-dihydro-1,6-naphthyridin-3-yl)methyl)phenyl)oxazolidin-2-one]	7.78
O=c1[nH]c2ccccc2cc1Cc1ccc([C@@H]2CCNC2)cc1 [65A]	8.15
O=c1[nH]c2ccccc2cc1Cc1ccc([C@H]2CCNC2)cc1 [65B]	8.05
O=C(c1ccc(Cc2cc3ccccc3[nH]c2=O)cc1)N1CC(O)C1 [Example 1, 3-(4-(3-hydroxyazetidine-1-carbonyl)benzyl)quinolin-2(1H)-one]	7.81
O=c1[nH]c2ccccc2cc1Cc1nnc(-c2c(F)cccc2F)o1 [Example 3, 3-((5-(2,6-difluorophenyl)-1,3,4-oxadiazol-2-yl)methyl)quinolin-2(1H)-one]	8.70
O=c1[nH]c2ccccc2cc1Cc1nnc(-c2cnn[nH]2)o1 [Example 4, 3-((5-(1H-1,2,3-triazol-5-yl)-1,3,4-oxadiazol-2-yl)methyl)quinolin-2(1H)-one]	7.11
O=c1[nH]c2ccccc2cc1Cc1nnc(-c2ccccc2)o1 [Example 5, 3-((5-phenyl-1,3,4-oxadiazol-2-yl)methyl)quinolin-2(1H)-one]	7.38
O=c1[nH]c2ccccc2cc1Cc1nnc(-c2cn[nH]c2)o1 [Example 6, 3-((5-(1H-pyrazol-4-yl)-1,3,4-oxadiazol-2-yl)methyl)quinolin-2(1H)-one]	8.55
O=c1[nH]c2ccccc2cc1Cc1nnc(-c2ccc(C(F)(F)F)cc2)o1 [Example 7, 3-((5-(4-(trifluoromethyl)phenyl)-1,3,4-oxadiazol-2-yl)methyl)quinolin-2(1H)-one]	7.09
O=c1[nH]c2ccccc2cc1Cc1nnc(Cc2ccccc2F)o1 [Example 8, 3-((5-(2-fluorobenzyl)-1,3,4-oxadiazol-2-yl)methyl)quinolin-2(1H)-one]	7.89
O=c1[nH]c2ccccc2cc1Cc1nnc(C2CCCCC2)o1 [Example 9, 3-((5-cyclohexyl-1,3,4-oxadiazol-2-yl)methyl)quinolin-2(1H)-one]	7.29
O=c1[nH]c2ccccc2cc1Cc1nnc(-c2cccc(C(F)(F)F)c2)o1 [Example 10, 3-((5-(3-(trifluoromethyl)phenyl)-1,3,4-oxadiazol-2-yl)methyl)quinolin-2(1H)-one]	8.12
O=c1[nH]c2ccccc2cc1Cc1nnc(-c2cc(Cl)ccc2Cl)o1 [Example 11, 3-((5-(2,5-dichlorophenyl)-1,3,4-oxadiazol-2-yl)methyl)quinolin-2(1H)-one]	8.66
O=c1[nH]c2ccccc2cc1Cc1nnc(-c2cn3cccnc3n2)o1 [Example 12, 3-((5-(imidazo[1,2-a]pyrimidin-2-yl)-1,3,4-oxadiazol-2-yl)methyl)quinolin-2(1H)-one]	6.37
O=c1[nH]c2ccccc2cc1Cc1nnc(-c2cn3ccsc3n2)o1 [Example 13, 3-((5-(imidazo[2,1-b]thiazol-6-yl)-1,3,4-oxadiazol-2-yl)methyl)quinolin-2(1H)-one]	8.24
Cc1onc(-c2nnc(Cc3cc4ccccc4[nH]c3=O)o2)c1C [Example 14, 3-((5-(4,5-dimethylisoxazol-3-yl)-1,3,4-oxadiazol-2-yl)methyl)quinolin-2(1H)-one]	6.82
Cc1noc(C(C)C)c1-c1nnc(Cc2cc3ccccc3[nH]c2=O)o1 [Example 15, 3-((5-(5-isopropyl-3-methylisoxazol-4-yl)-1,3,4-oxadiazol-2-yl)methyl)quinolin-2(1H)-one]	7.86

Results, then the molecule that gave them:

pEC50	Structure (SMILES)
8.59	N#CC1(c2ccc(Cc3cc4ccccc4[nH]c3=O)cc2)CC(O)C1 (single isomer, unassigned) [Example 101A, 3-hydroxy-1-(4-((2-oxo-1,2-dihydroquinolin-3-yl)methyl)phenyl)cyclobutane-1-carbonitrile]
8.28	CC(O)C(C#N)c1ccc(Cc2cc3ccccc3[nH]c2=O)cc1 (single isomer, unassigned) [Example 102A, 3-hydroxy-2-(4-((2-oxo-1,2-dihydroquinolin-3-yl)methyl)phenyl)butanenitrile]
8.11	CC(O)C(C#N)c1ccc(Cc2cc3ccccc3[nH]c2=O)cc1 (single isomer, unassigned) [Example 102B, 3-hydroxy-2-(4-((2-oxo-1,2-dihydroquinolin-3-yl)methyl)phenyl)butanenitrile]
7.93	CC(O)C(C#N)c1ccc(Cc2cc3ccccc3[nH]c2=O)cc1 (single isomer, unassigned) [Example 102C, 3-hydroxy-2-(4-((2-oxo-1,2-dihydroquinolin-3-yl)methyl)phenyl)butanenitrile]
7.96	CC(O)C(C#N)c1ccc(Cc2cc3ccccc3[nH]c2=O)cc1 (single isomer, unassigned) [Example 102D, 3-hydroxy-2-(4-((2-oxo-1,2-dihydroquinolin-3-yl)methyl)phenyl)butanenitrile]
8.36	C[C@H]1Oc2ccc(Cc3cc4ccccc4[nH]c3=O)cc2NC1=O (single isomer, unassigned) [Example 142A, 2-methyl-6-((2-oxo-1,2-dihydroquinolin-3-yl)methyl)-2H-benzo[b][1,4]oxazin-3(4H)-one]
7.80	C[C@]1(c2ccc(Cc3cc4ccccc4[nH]c3=O)cc2)CCC(=O)N1 (single isomer, unassigned) [Example 183A, (S or R)-3-(4-(2-methyl-5-oxopyrrolidin-2-yl)benzyl)quinolin-2(1H)-one]
7.95	CC1(c2ccc(Cc3cc4ccccc4[nH]c3=O)cc2)CCC(=O)N1 (single isomer, unassigned) [Example 183B, (R or S)-3-(4-(2-methyl-5-oxopyrrolidin-2-yl)benzyl)quinolin-2(1H)-one]
8.02	C[C@@](O)(c1ccc(Cc2cc3ccccc3[nH]c2=O)cc1)C(F)F (stereo in doubt) [Example 90A, 3-(4-(1,1-difluoro-2-hydroxypropan-2-yl)benzyl)quinolin-2(1H)-one]
7.09	C[C@@H]1Oc2ccc(Cc3cc4ccccc4[nH]c3=O)cc2NC1=O (stereo in doubt) [Example 142B, 2-methyl-6-((2-oxo-1,2-dihydroquinolin-3-yl)methyl)-2H-benzo[b][1,4]oxazin-3(4H)-one]
